Laboratory results: ChEMBL document CHEMBL1144268, “Unified Markov thermodynamics based on stochastic forms to classify drugs considering molecular structure, partition system, and biological species: distribution of the antimicrobial G1 on rat tissues” (2005)

What was measured:
Type in all cases: functional
Rattus norvegicus [1] = organism: Rattus norvegicus; test: Partition coefficient in rat spleen
Rattus norvegicus [2] = organism: Rattus norvegicus; test: Plasma concentration measured in rat liver after treatment with the compound
Rattus norvegicus [3] = organism: Rattus norvegicus; test: Plasma concentration measured in rat plasma after treatment with the compound
Rattus norvegicus [4] = organism: Rattus norvegicus; test: Plasma concentration measured in rat lung after treatment with the compound
Rattus norvegicus [5] = organism: Rattus norvegicus; test: Partition coefficient in rat adipose tissue
Rattus norvegicus [6] = organism: Rattus norvegicus; test: Partition coefficient in rat lung
Rattus norvegicus [7] = organism: Rattus norvegicus; test: Plasma concentration measured in rat spleen after treatment with the compound
Rattus norvegicus [8] = organism: Rattus norvegicus; test: Partition coefficient in rat liver
Rattus norvegicus [9] = organism: Rattus norvegicus; test: Plasma concentration measured in rat adipose tissue after treatment with the compound

O=[N+]([O-])/C(Br)=C/C1CCC(Br)O1 (centres undefined)
PC (Rattus norvegicus [1]): 1.29
C (Rattus norvegicus [2]): 42.25 mg/mL
C (Rattus norvegicus [3]): 8.9 mg/mL
C (Rattus norvegicus [4]): 17.04 mg/mL
PC (Rattus norvegicus [5]): 3.17
PC (Rattus norvegicus [6]): 1.91
C (Rattus norvegicus [7]): 11.47 mg/mL
PC (Rattus norvegicus [8]): 4.75
C (Rattus norvegicus [9]): 28.19 mg/mL
